Source: patent publication US20260215428A1, “WEED CONTROL METHOD” (SYNGENTA CROP PROTECTION AG, priority 2023, published 2026)

Legend:
Assay type in all cases: in vivo
[1] = tested on: Eleusine indica; assay: Glasshouse post-emergence test, visual damage, Tables B1-2 and B1-3; settings: 14 days after application
Description: Seeds of a variety of test species are sown in standard soil in pots. For each treatment, three replicate pots containing 10-15 plants per one-inch pot were sprayed at the 2-3 leaf stage. […] The test plants are then grown in a glasshouse under controlled conditions in a glasshouse (at 24/16° C., day/night; 14 hours light; 65% humidity) and watered twice daily. Plants were assessed for visual damage compared to the untreated control 14 days after application (0=0% damage; 100=100% damage).

[2] = tested on: Setaria viridis; assay: Glasshouse post-emergence test, visual damage, Table B1-5; settings: 14 days after application
Description: Seeds of a variety of test species are sown in standard soil in pots. For each treatment, three replicate pots containing 10-15 plants per one-inch pot were sprayed at the 2-3 leaf stage. Clethodim and Compound (Ic) were each applied at 15, 30, 60 and 120 g ai/ha. The test plants are then grown in a glasshouse under controlled conditions in a glasshouse (at 24/16° C., day/night; 14 hours light; 65% humidity) and watered twice daily. Plants were assessed for visual damage compared to the untreated control 14 days after application (0=0% damage; 100=100% damage).

[3] = tested on: Eleusine indica; assay: Further glasshouse test versus other ACCase-inhibiting herbicides, Table B2-2; settings: 21 days after application
Source text: (§1) Further tests were employed to test the efficacy of a compound of Formula I versus other ACCase-inhibiting herbicides. The five main targets were Lolium multiflorum, Eleusine indica, Digitaria insularis, Sorghum halepense and Echinochloa crus-galli. Collectively, the populations contained all the major target-site resistance mutations affecting ACCase herbicides. Two L. multiflorum (LM-NTSR-1 and LM-NTSR-2) and one E. crus-galli (ECG-NTSR-1) populations were characterised exclusively by non-target-site resistance (“NTSR”). The target-site resistant L. multiflorum and E. indication populations were 100% homozygous for different ACCase mutations whilst the D. insularis, S. halepense and E. crus-galli samples contained a mixture of homozygous wild and mutant individuals at different genotypic frequencies. Additional underlying NTSR cannot be ruled out in the populations characterised by target-site resistance.
(§2) Around 50 seeds of each of the 24 weed populations were sown in 12-cm pots containing a mixture of peat and compost in a 1:1 ratio. The pots were watered, fertilised and kept in controlled glasshouse conditions set at 24° C./16 hr day, 18° C. night, 65% relative humidity, and a photon flux density of approximately 250 μmol quanta m^−2 s^−1 for Lolium multiflorum. The E. indica, D. insularis, S. halepense and E. crus-galli plants were kept in a separate glasshouse bay characterised by a 17 H photoperiod of 180 μmol m^−2 s^−1 with temperatures of 25° C. day and 19° C. night and 65% relative humidity. When the plants were at the two to four-leaf stage, they were treated with the various ACCase-inhibiting herbicides at 0, 15, 30, 60, 120 and 240 g ai ha^−1 in a spray cabinet mounted with a single mobile Teejet flat fan nozzle (11002VS) calibrated to deliver 200 L ha^−1 at 200 kPa. The L. multiflorum populations were treated by a compound of Formula Ic, clodinafop-propargyl, pinoxaden, cycloxydim and clethodim and the warm season grass weeds E. indica, D. insularis, S. halepense and E. crus-galli were sprayed with a Compound Ic and the commonly employed haloxyfop-methyl and clethodim. Three replicate pots were used per population. Plants were assessed for visual damage compared to the untreated control 21 days after application (0=0% damage; 100=100% damage).

[4] = tested on: Echinochloa Crus-galli; assay: Further glasshouse test versus other ACCase-inhibiting herbicides, Table B2-5; settings: 21 days after application
Source text: as §1, §2

## CC#Cc1ccc(C2=C(OC(=O)OC)C3CCC(C3)C2=O)c(OC)c1 (centres unmarked) [Compound Ic]
[1]; Table B1-2, biotype 87% I1781L (heterozygous), 15 g/ha
  visual damage: 97%
[1]; Table B1-2, biotype 87% I1781L (heterozygous), 30 g/ha
  visual damage: 100%
[1]; Table B1-2, biotype 87% I1781L (heterozygous), 60 g/ha
  visual damage: 100%
[1]; Table B1-2, biotype 87% I1781L (heterozygous), 120 g/ha
  visual damage: 100%
[1]; Table B1-2, biotype D2078G + W2027C (heterozygous), first entry, 15 g/ha
  visual damage: 87%
[1]; Table B1-2, biotype D2078G + W2027C (heterozygous), first entry, 30 g/ha
  visual damage: 100%
[1]; Table B1-2, biotype D2078G + W2027C (heterozygous), first entry, 60 g/ha
  visual damage: 100%
[1]; Table B1-2, biotype D2078G + W2027C (heterozygous), first entry, 120 g/ha
  visual damage: 100%
[1]; Table B1-2, biotype D2078G + W2027C (heterozygous), second entry, 15 g/ha
  visual damage: 83%
[1]; Table B1-2, biotype D2078G + W2027C (heterozygous), second entry, 30 g/ha
  visual damage: 100%
[1]; Table B1-2, biotype D2078G + W2027C (heterozygous), second entry, 60 g/ha
  visual damage: 100%
[1]; Table B1-2, biotype D2078G + W2027C (heterozygous), second entry, 120 g/ha
  visual damage: 100%
[1]; Table B1-2, biotype I2041N (heterozygous), 15 g/ha
  visual damage: 70%
[1]; Table B1-2, biotype I2041N (heterozygous), 30 g/ha
  visual damage: 100%
[1]; Table B1-2, biotype I2041N (heterozygous), 60 g/ha
  visual damage: 100%
[1]; Table B1-2, biotype I2041N (heterozygous), 120 g/ha
  visual damage: 100%
[1]; Table B1-2, biotype NTSR (non-target site resistance), 1 g/ha
  visual damage: 20%
[1]; Table B1-2, biotype NTSR (non-target site resistance), 2 g/ha
  visual damage: 40%
[1]; Table B1-2, biotype NTSR (non-target site resistance), 4 g/ha
  visual damage: 60%
[1]; Table B1-2, biotype NTSR (non-target site resistance), 8 g/ha
  visual damage: 73%
[1]; Table B1-2, biotype Sensitive, 15 g/ha
  visual damage: 100%
[1]; Table B1-2, biotype Sensitive, 30 g/ha
  visual damage: 100%
[1]; Table B1-2, biotype Sensitive, 60 g/ha
  visual damage: 100%
[1]; Table B1-2, biotype Sensitive, 120 g/ha
  visual damage: 100%
[1]; Table B1-3, Pop1 (mix of sensitive, D2078G and G2096A biotypes), 15 g/ha
  visual damage: 98%
[1]; Table B1-3, Pop1 (mix of sensitive, D2078G and G2096A biotypes), 30 g/ha
  visual damage: 100%
[1]; Table B1-3, Pop1 (mix of sensitive, D2078G and G2096A biotypes), 60 g/ha
  visual damage: 100%
[1]; Table B1-3, Pop1 (mix of sensitive, D2078G and G2096A biotypes), 120 g/ha
  visual damage: 100%
[1]; Table B1-3, Pop2 (mix of sensitive, D2078G and G2096A biotypes), 15 g/ha
  visual damage: 86%
[1]; Table B1-3, Pop2 (mix of sensitive, D2078G and G2096A biotypes), 30 g/ha
  visual damage: 100%
[1]; Table B1-3, Pop2 (mix of sensitive, D2078G and G2096A biotypes), 60 g/ha
  visual damage: 100%
[1]; Table B1-3, Pop2 (mix of sensitive, D2078G and G2096A biotypes), 120 g/ha
  visual damage: 100%
[1]; Table B1-3, biotype Sensitive, 15 g/ha
  visual damage: 100%
[1]; Table B1-3, biotype Sensitive, 30 g/ha
  visual damage: 100%
[1]; Table B1-3, biotype Sensitive, 60 g/ha
  visual damage: 100%
[1]; Table B1-3, biotype Sensitive, 120 g/ha
  visual damage: 100%
[2]; biotype GG2078 (homozygous), 15 g/ha
  visual damage: 50%
[2]; biotype GG2078 (homozygous), 30 g/ha
  visual damage: 73%
[2]; biotype GG2078 (homozygous), 60 g/ha
  visual damage: 98%
[2]; biotype GG2078 (homozygous), 120 g/ha
  visual damage: 98%
[2]; biotype II1781 (homozygous), 15 g/ha
  visual damage: 70%
[2]; biotype II1781 (homozygous), 30 g/ha
  visual damage: 90%
[2]; biotype II1781 (homozygous), 60 g/ha
  visual damage: 98%
[2]; biotype II1781 (homozygous), 120 g/ha
  visual damage: 100%
[2]; biotype LL1781 (homozygous), 15 g/ha
  visual damage: 60%
[2]; biotype LL1781 (homozygous), 30 g/ha
  visual damage: 90%
[2]; biotype LL1781 (homozygous), 60 g/ha
  visual damage: 98%
[2]; biotype LL1781 (homozygous), 120 g/ha
  visual damage: 100%
[2]; biotype Sensitive, 15 g/ha
  visual damage: 87%
[2]; biotype Sensitive, 30 g/ha
  visual damage: 93%
[2]; biotype Sensitive, 60 g/ha
  visual damage: 100%
[2]; biotype Sensitive, 120 g/ha
  visual damage: 100%
[3]; biotype D2078G, 15 g/ha
  visual damage: 88%
[3]; biotype D2078G, 30 g/ha
  visual damage: 100%
[3]; biotype D2078G, 60 g/ha
  visual damage: 100%
[3]; biotype D2078G, 120 g/ha
  visual damage: 100%
[3]; biotype D2078G, 240 g/ha
  visual damage: 100%
[3]; biotype G2096A, 15 g/ha
  visual damage: 93%
[3]; biotype G2096A, 30 g/ha
  visual damage: 98%
[3]; biotype G2096A, 60 g/ha
  visual damage: 100%
[3]; biotype G2096A, 120 g/ha
  visual damage: 100%
[3]; biotype G2096A, 240 g/ha
  visual damage: 100%
[3]; biotype I2041N, 15 g/ha
  visual damage: 50%
[3]; biotype I2041N, 30 g/ha
  visual damage: 98%
[3]; biotype I2041N, 60 g/ha
  visual damage: 100%
[3]; biotype I2041N, 120 g/ha
  visual damage: 100%
[3]; biotype I2041N, 240 g/ha
  visual damage: 100%
[3]; biotype Sensitive, 15 g/ha
  visual damage: 100%
[3]; biotype Sensitive, 30 g/ha
  visual damage: 100%
[3]; biotype Sensitive, 60 g/ha
  visual damage: 100%
[3]; biotype Sensitive, 120 g/ha
  visual damage: 100%
[3]; biotype Sensitive, 240 g/ha
  visual damage: 100%
[3]; biotype W2027C, 15 g/ha
  visual damage: 100%
[3]; biotype W2027C, 30 g/ha
  visual damage: 100%
[3]; biotype W2027C, 60 g/ha
  visual damage: 100%
[3]; biotype W2027C, 120 g/ha
  visual damage: 100%
[3]; biotype W2027C, 240 g/ha
  visual damage: 100%
[4]; biotype Sensitive, 15 g/ha
  visual damage: 100%
[4]; biotype Sensitive, 30 g/ha
  visual damage: 100%
[4]; biotype Sensitive, 60 g/ha
  visual damage: 100%
[4]; biotype Sensitive, 120 g/ha
  visual damage: 100%
[4]; biotype Sensitive, 240 g/ha
  visual damage: 100%
[4]; biotype W2027C, 15 g/ha
  visual damage: 100%
[4]; biotype W2027C, 30 g/ha
  visual damage: 100%
[4]; biotype W2027C, 60 g/ha
  visual damage: 100%
[4]; biotype W2027C, 120 g/ha
  visual damage: 100%
[4]; biotype W2027C, 240 g/ha
  visual damage: 100%
[4]; population ECG-NTSR-1 (non-target-site resistance), 15 g/ha
  visual damage: 90%
[4]; population ECG-NTSR-1 (non-target-site resistance), 30 g/ha
  visual damage: 100%
[4]; population ECG-NTSR-1 (non-target-site resistance), 60 g/ha
  visual damage: 100%
[4]; population ECG-NTSR-1 (non-target-site resistance), 120 g/ha
  visual damage: 100%
[4]; population ECG-NTSR-1 (non-target-site resistance), 240 g/ha
  visual damage: 100%
